Measured values from US11203582B2, “Benzamide derivatives for inhibiting endoplasmic reticulum (ER) stress” (The Board of Regents of the University of Oklahoma, priority 2017, dated 2021).
Read-outs that look alike come from different tables or passages of the source.

Test system: INS-1 cells
Experiment: Cell survival assay, intracellular ATP (CellTiter-Glo), INS-1 cells treated with Tm
Assay type: cell-based, rat
Settings: for EC50: read-out: EC50; for improvement of EC50 value over the corresponding ethylene derivative: methylene vs ethylene linker (9e vs 8d; 11d vs 11b)
Description: A structure-activity-relationship (SAR) study was thus conducted to improve the weak potency of lead compound 1. Newly synthesized or commercially available compounds were tested for their β-cell-protective activity against ER stress in rat INS-1 β-cells. […] The maximum activities and the concentrations that reach half-maximal activity (EC50) of the compounds were evaluated by the degree of increase in viability of INS-1 cells co-treated with the compounds in the presence of Tm compared with Tm treatment alone. Maximum activity value in the tables is reported as % rescue from Tm (0.1 μg/mL)-induced reduction of cell viability. The values for Tm treatment alone and control (DMSO, without Tm) treatment are designated as 0% and 100%, respectively in all tables. EC50 values (the concentrations that reach half-maximal activity) for INS-1 cell viability were calculated with GraphPad Prism from the data of ten 2-fold serial titration points in all tables. All experiments were performed in triplicate in all tables.
INS-1 cells were cultured in RPMI 1640 (Corning, N.Y., USA) supplemented with 10% FBS (Atlanta Biologicals, Norcross, Ga.), HEPES (10 mM, Life Technologies, CA, USA), sodium pyruvate (1 mM, Corning), 2-mercaptoethanol (50 μM, Sigma, St Louis, Mo., USA) and antibiotics (100 UI/mL penicillin and 100 μg/mL streptomycin, Corning). βTC6 cells were cultured in DMEM (Corning) with 15% FBS, sodium pyruvate (1 mM, Corning), non-essential amino acids (1 mM, Thermo, Ill., USA), GlutaMAX (1 mM, Life Technologies) and antibiotics (100 UI/mL penicillin and 100 μg/mL streptomycin). All cells were grown at 37° C. in a humidified 5% CO2 atmosphere.
INS-1 cells or βTC6 cells were seeded at 3×10^3 cells/well in a 384-well plate and treated with compounds at the indicated concentrations. After 3 d treatment, the medium was aspirated and 20 μL/well of CellTiter-Glo reagent (Promega, WI, USA) was added for the detection of intracellular ATP levels. Cell viability was measured with an EnVision multilabel plate reader (PerkinElmer, MA, USA).

[1] = INS-1 cells, Tm-induced ER stress
[2] = Table 2, INS-1 cell viability, Tm 0.1 μg/mL, 72 h
[3] = Table 2, INS-1 cells, Tm 0.1 μg/mL, 72 h, Tm alone 0%, DMSO control 100%
[4] = Table 3, INS-1 cells, Tm 0.1 μg/mL, 72 h, Tm alone 0%, DMSO control 100%
[5] = Table 3, INS-1 cell viability, Tm 0.1 μg/mL, 72 h
[6] = Table 4, INS-1 cell viability, Tm 0.1 μg/mL, 72 h
[7] = Table 4, INS-1 cells, Tm 0.1 μg/mL, 72 h, Tm alone 0%, DMSO control 100%
[8] = Table 5, INS-1 cell viability, Tm 0.1 μg/mL, 72 h
[9] = Table 5, INS-1 cells, Tm 0.1 μg/mL, 72 h, Tm alone 0%, DMSO control 100%

O=C(NCCc1cccc(Cl)c1)c1ccc2c(c1)OCCO2 [Compound 1, N-(3-chlorophenethyl)-2,3-dihydrobenzo[b][1,4]dioxine-6-carboxamide]
maximum activity (β-cell-protective activity) [1]: 42% | EC50 (Rattus norvegicus, INS1, INS-1 cells, Tm-induced ER stress): 21 µM | EC50 (Rattus norvegicus, INS1, Table 1, INS-1 cell viability, Tm 0.1 μg/mL, 72 h): 21 ± 5.7 µM | Emax (Rattus norvegicus, INS1, Table 1, INS-1 cells, Tm 0.1 μg/mL, 72 h, Tm alone 0%, DMSO control 100%, read-out: Maximum activity (% rescue)): 42%

COc1ccc(C(=O)NCCc2cccc(Cl)c2)cc1OC [Compound 8h]
EC50 (Table 1, INS-1 cell viability, Tm 0.1 μg/mL, 72 h): 24 ± 2.1 µM | Maximum activity (% rescue) (Table 1, INS-1 cells, Tm 0.1 μg/mL, 72 h, Tm alone 0%, DMSO control 100%): 46% ± 17%

O=C(NCc1ccccc1Cl)c1ccc2c(c1)OCCO2 [Compound 9a]
EC50 [2]: 25 ± 6.9 µM | Maximum activity (% rescue) [3]: 43% ± 12%

O=C(NCc1ccccc1Br)c1ccc2c(c1)OCCO2 [Compound 9b]
EC50 [2]: 25 ± 2.1 µM | Maximum activity (% rescue) [3]: 38% ± 14%

O=C(NCc1cccc(Cl)c1)c1ccc2c(c1)OCCO2 [Compound 9c]
EC50 [2]: 9.5 ± 1.2 µM | Maximum activity (% rescue) [3]: 57% ± 11%

O=C(NCc1cccc(Br)c1)c1ccc2c(c1)OCCO2 [Compound 9d]
EC50 [2]: 5.5 ± 0.7 µM | Maximum activity (% rescue) [3]: 69% ± 9%

O=C(NCc1ccc(Cl)cc1)c1ccc2c(c1)OCCO2 [Compound 9e]
maximum activity (β-cell-protective activity) [1]: 69% | EC50 [1]: 2.8 µM | Maximum activity (% rescue) [3]: 69% ± 12% | improvement of EC50 value over the corresponding ethylene derivative: ~6 fold

O=C(NCc1ccc(Cl)c(Cl)c1)c1ccc2c(c1)OCCO2 [Compound 9f]
EC50 [2]: 3.6 ± 0.9 µM | Maximum activity (% rescue) [3]: 68% ± 10%

Cc1ccccc1C(=O)NCCc1ccccc1 [Compound 10a]
Maximum activity (% rescue) [4]: 6% ± 5%

CC(C)Sc1ccccc1C(=O)NCCc1ccccc1 [Compound 10b]
EC50 [5]: > 30 µM | Maximum activity (% rescue) [4]: 30% ± 8%

O=C(NCCc1ccccc1)c1cccc(F)c1 [Compound 10c]
Maximum activity (% rescue) [4]: <0 % rescue

O=C(NCCc1ccccc1)c1cccc([N+](=O)[O-])c1 [Compound 10d]
Maximum activity (% rescue) [4]: <0 % rescue

Nc1cccc(C(=O)NCCc2ccccc2)c1 [Compound 10e]
Maximum activity (% rescue) [4]: <0 % rescue

CCOc1cccc(C(=O)NCCc2ccccc2)c1 [Compound 10f]
EC50 [5]: 26 ± 4.5 µM | Maximum activity (% rescue) [4]: 49% ± 11%

CS(=O)(=O)Nc1cccc(C(=O)NCCc2ccccc2)c1 [Compound 10g]
EC50 [5]: 25 ± 2.1 µM | Maximum activity (% rescue) [4]: 24% ± 8%

Cc1ccc(C(=O)NCCc2ccccc2)cc1 [Compound 10h]
EC50 [5]: 20 ± 5.4 µM | Maximum activity (% rescue) [4]: 25% ± 5%

C#CCOc1ccc(C(=O)NCCc2ccccc2)cc1 [Compound 10i]
EC50 [5]: > 30 µM | Maximum activity (% rescue) [4]: 54% ± 8%

CN(C)S(=O)(=O)c1ccc(C(=O)NCCc2ccccc2)cc1 [Compound 10j]
EC50 [5]: 19 ± 2.1 µM | Maximum activity (% rescue) [4]: 37% ± 6%

O=C(NCCc1ccccc1)c1ccc(CN2CCCC2)cc1 [Compound 10k]
maximum activity (β-cell-protective activity) [1]: 31% | EC50 [5]: 11 ± 1.9 µM | Maximum activity (% rescue) [4]: 31% ± 7%

O=C(NCCc1ccccc1)c1ccc(CN2CCCCC2)cc1 [Compound 10l]
maximum activity (β-cell-protective activity) [1]: 87% | EC50 [1]: 21 µM | EC50 [5]: 21 ± 3.5 µM | Maximum activity (% rescue) [4]: 87% ± 9% | EC50 [6]: 21 ± 3.5 µM | Maximum activity (% rescue) [7]: 87% ± 6%

O=C(NCCc1ccccc1)c1ccc(Cl)c(Cl)c1 [Compound 10m]
EC50 [5]: 17 ± 6.1 µM | Maximum activity (% rescue) [4]: 42% ± 11%

COc1ccc(C(=O)NCCc2ccccc2)cc1C [Compound 10n]
EC50 [5]: 15 ± 3.2 µM | Maximum activity (% rescue) [4]: 56% ± 8%

O=C(NCCc1ccccc1)c1ccc(F)c(F)c1F [Compound 10o]
EC50 [5]: 9.9 ± 2.1 µM | Maximum activity (% rescue) [4]: 23% ± 6%

O=C(NCCc1ccccc1)c1cc(F)c(F)c(F)c1F [Compound 10p]
Maximum activity (% rescue) [4]: <0 % rescue

O=C(NCCc1ccc(Cl)cc1)c1ccc(CN2CCCCC2)cc1 [Compound 11a]
EC50 [6]: 21 ± 4.2 µM | Maximum activity (% rescue) [7]: 82% ± 10%

O=C(NCCc1ccc(Cl)c(Cl)c1)c1ccc(CN2CCCCC2)cc1 [Compound 11b]
EC50 [1]: 24 ± 2.7 µM | Maximum activity (% rescue) [7]: 71% ± 11%

O=C(NCc1ccc(Cl)cc1)c1ccc(CN2CCCCC2)cc1 [Compound 11c]
EC50 [6]: 9.5 ± 1.1 µM | Maximum activity (% rescue) [7]: 77% ± 7%

O=C(NCc1ccc(Cl)c(Cl)c1)c1ccc(CN2CCCCC2)cc1 [Compound 11d]
EC50 [1]: 1.8 ± 0.2 µM | Maximum activity (% rescue) [7]: 78% ± 10% | improvement of EC50 value over the corresponding ethylene derivative: 13 fold

O=C(NCc1ccc(Cl)cc1)c1ccccc1CN1CCCCC1 [Compound 12a]
EC50 [8]: 6.9 ± 1.2 µM | Maximum activity (% rescue) [9]: 73% ± 13%

O=C(NCc1ccccc1)c1cccc(CN2CCCCC2)c1 [Compound 12b]
EC50 [8]: 0.352 ± 0.062 µM | Maximum activity (% rescue) [9]: 95% ± 8%

O=C(NCc1ccccc1Cl)c1cccc(CN2CCCCC2)c1 [Compound 12c]
EC50 [8]: 2.04 ± 0.18 µM | Maximum activity (% rescue) [9]: 93% ± 7%

O=C(NCc1cccc(Cl)c1)c1cccc(CN2CCCCC2)c1 [Compound 12d]
EC50 [8]: 0.405 ± 0.057 µM | Maximum activity (% rescue) [9]: 90% ± 11%

O=C(NCc1ccc(Cl)cc1)c1cccc(CN2CCCCC2)c1 [Compound 12e]
EC50 [8]: 0.24 ± 0.06 µM | Maximum activity (% rescue) [9]: 93% ± 13%

O=C(NCc1ccccc1Cl)c1ccc(CN2CCCCC2)cc1 [Compound 12f]
EC50 [8]: 13 ± 1.6 µM | Maximum activity (% rescue) [9]: 87% ± 15%

O=C(NCc1cccc(Cl)c1)c1ccc(CN2CCCCC2)cc1 [Compound 12g]
EC50 [8]: 2.2 ± 0.3 µM | Maximum activity (% rescue) [9]: 80% ± 9%

O=C(NCc1cccc(Br)c1)c1ccc(CN2CCCCC2)cc1 [Compound 12h]
EC50 [8]: 4.9 ± 0.7 µM | Maximum activity (% rescue) [9]: 81% ± 12%

COc1cccc(CNC(=O)c2cccc(CN3CCCCC3)c2)c1 [Compound 13a]
EC50 [8]: 0.964 ± 0.135 µM | Maximum activity (% rescue) [9]: 92% ± 10%

COc1ccc(CNC(=O)c2cccc(CN3CCCCC3)c2)cc1 [Compound 13b]
EC50 [8]: 1.12 ± 0.21 µM | Maximum activity (% rescue) [9]: 93% ± 5%

O=C(NCc1cccc(C(F)(F)F)c1)c1cccc(CN2CCCCC2)c1 [Compound 13c]
EC50 [8]: 0.246 ± 0.043 µM | Maximum activity (% rescue) [9]: 91% ± 14%
